# Source: article PMC10787067, “EBF2 Links KMT2D‐Mediated H3K4me1 to Suppress Pancreatic Cancer Progression via Upregulating KLLN” (Advanced Science, 2023)
# Experiments:
# PANC‐1 cells [1] = experiment: KLLN rescue experiments (CCK-8, colony-formation, Transwell), PANC-1; assay type: cell-based, Human; conditions: p < 0.01, Figure S4H-J
# Experimental: (§1) Cell proliferation was determined by Cell Counting Kit‐8 (CCK‐8, Yeasen) and EdU Cell Proliferation Assay kit (Ribobio, Guangzhou, China). Colony formation was observed by staining with 0.1% crystal violet (Sangon Biotechnologies Inc., Shanghai, China). Cell migration and invasion were assessed using […] pore Transwell chambers with (for invasion assay) or without Matrigel (for migration assay). For migration assay, 5 × 10^4 SW1990 or 3 × 10^4 PANC‐1 cells were seeded into the upper chamber of the Transwell apparatus (Corning, USA) in serum‐free medium, and the medium supplemented with 10% FBS was added to the bottom chamber. For invasion assay, 10 × 10^4 SW1990 or 6 × 10^4 PANC‐1 cells were seeded into the upper Corning BioCoat Matrigel invasion chamber. After 24 h, the cells on the upper surface that had not passed through the polycarbonate filter were removed using a moistened cotton swab; the cells having migrated to the lower membrane surface were fixed in 100% methanol for 10 min, stained with 0.4% crystal violet for 15 min, and counted under a microscope (Nikon, Japan) at ×100 magnification. The cells were manually counted using Image J software. Three independent experiments were performed.
# H3K4me1 [2] = experiment: IHC of H3K4me1 in PDX tumors; assay type: in vivo, Human (xenograft in immunodeficient nude mice); conditions: vs control, Figure 5O
# Experimental: PDAC and tumor adjacent tissues were obtained from the Second Affiliated Hospital of Nanjing Medical University. Ninety pairs of ductal adenocarcinoma and adjacent normal pancreatic tissue sections (HPanA180Su03) were obtained from Shanghai Outdo Biotech (National Human Genetic Resources Sharing Service Platform with code No. XT20‐021, Shanghai, China), under the approval by the Ethics Committee of Shanghai Outdo Biotech. IHC staining was performed on paraffin‐embedded sections of biopsies from ductal adenocarcinoma patients and controls according to standard protocols (CST). […] All pancreatic cancer tissue sections were examined by two experienced pathologists, and the EBF2, KMT2D or KLLN stained in the tissue was scored independently using the H‐score system by two pathologists blinded to the clinical data. […] For the Pearson correlation scatter plot of molecules in ductal adenocarcinoma, the H score was calculated by adding the multiplication product of the different staining intensities in category A (0–3) with the percentage of positive cells, i.e., H score (0–300 scale) = 3 × (% at 3+) + 2 × (% at 2+) + 1 × (% at 1+). […] The between‐group difference in the overall survival was evaluated by the log‐rank test. The correlation between EBF2, KMT2D, and KLLN expression in ductal adenocarcinoma was assessed via Pearson correlation analysis. […]
# PANC‐1 cells [3] = experiment: Transwell migration and invasion, PANC-1; assay type: cell-based, Human; conditions: 24 h, vs Vehicle, p < 0.01, Figure S4G
# Experimental: as §1
# H3K4me1 [4] = experiment: Western blot of H3K4me1 in PANC-1 cells; assay type: cell-based, Human; conditions: 0, 1, 10 or 100 μM GSK-LSD1, Figure S4D
# SW1990 cells = experiment: RNA-seq of GSK-LSD1-treated SW1990 cells; assay type: cell-based, Human; conditions: fold change > 1.5, p < 0.05, Figure 4A
# From the text: Total RNA was isolated from cells using RNAiso plus (Takara). The quantity and integrity of RNA were separately evaluated using the K5500 (Beijing Kaiao, China) and the Agilent 2200 TapeStation (Agilent Technologies, USA). Briefly, the mRNA was enriched by OligodT NEBNext Poly(A) mRNA Magnetic Isolation Module (NEB, USA), and then fragmented into ≈200 bp. Subsequently, the RNA fragments were subjected to first and second strand cDNA synthesis, followed by adaptor ligation and enrichment according to instructions of NEBNext Ultra RNA Library Prep Kit for Illumina. The purified library products were evaluated by the Agilent 2200 TapeStation and Qubit (Thermo Fisher Scientific, USA). The libraries were sequenced by Illumina (Illumina, USA) with paired‐end 150 bp (Ribobio, China). The clean reads were acquired after discarding low‐quality reads or those containing adapter and ploy‐N. HISAT2 was employed to calibrate clean reads to human reference genome hg38 with default parameters. HTSeq was used to convert aligned short reads into read counts for each gene model. Differential gene expression was assessed by DESeq2 using read counts as input.^[ [62] ^] The Benjamini–Hochberg multiple test correction method was employed. […] RNA‐seq data sets were available (GEO accession number GSE237363).
# PDX tumors = experiment: Patient-derived xenograft (PDX) model of PDAC; assay type: in vivo, Human (xenograft in immunodeficient nude mice)
# From the text: A PDX model was established by implanting tumor fragments into immunodeficient nude mice. Tumor fragments were derived from a PDAC patient with stage II ductal adenocarcinoma, who underwent surgery at the Second Affiliated Hospital of Nanjing Medical University. Informed consent was obtained from each patient, and all procedures involving human samples were approved by the Ethics Committee of the Second Affiliated Hospital of Nanjing Medical University.
# KLLN = experiment: Western blot of KLLN in PANC-1 cells; assay type: cell-based, Human; conditions: 0, 1, 10 or 100 μM GSK-LSD1, Figure S4D
# Experimental: SW1990 and PANC‐1 cells were isolated using lysate buffer containing protease inhibitors. Samples containing equal amounts of protein were separated by SDS‐PAGE. After electrophoresis, the proteins were transferred to a PVDF membrane (Millipore, Billerica, MA, USA) and blocked with 5% skim milk for 2 h at room temperature. An overnight incubation of membranes was made at 4 °C with primary antibodies against KMT2D (1:1000; Affinity, China), EBF2 (1:1000; Affinity), and KLLN (1:1000; Abcam, USA). After washing with 1× TBST for three times, a 2 h incubation of membranes was implemented with horseradish peroxidase (HRP)‐gemeled Affinipure Goat Anti‐Rabbit IgG (H + L) (1:10000; ProteinTech, China) or Peroxidase‐gemeled Affinipure Goat Anti‐Mouse IgG (H+L) (1:10000; ProteinTech) at room temperature. Proteins were visualized by chemiluminescence using an ECL kit (Thermo Fisher).
smiles,measurement,setting,value
c1ccc([C@@H]2C[C@H]2NC2CCNCC2)cc1 [GSK‐LSD1],tumor-suppressive phenotype of GSK-LSD1 on knockdown of KLLN,PANC‐1 cells [1],markedly attenuated
same,H3K4me1 expression in PDX tumors,H3K4me1 [2],significantly upregulated
same,invasion,PANC‐1 cells [3]; Transwell with Matrigel,significantly inhibited
same,migration,PANC‐1 cells [3]; Transwell without Matrigel,significantly inhibited
same,"H3K4me1 level, concentration dependence",H3K4me1 [4],increased the levels of H3K4me1 and KLLN in a concentration‐dependent manner
same,upregulated genes overlapping between EBF2-OE and GSK-LSD1-treated cells,SW1990 cells,17
same,effect compared with Gemcitabine,"PDX tumors; PDX mice, n = 5, doses not given, Figure 5N,O",more favorable effects than Gemcitabine
same,PDX tumor size compared with control mice,"PDX tumors; n = 5, dose not given, Figure 5N",remarkably smaller tumors
same,"KLLN level, concentration dependence",KLLN,increased the levels of H3K4me1 and KLLN in a concentration‐dependent manner
